Test results reported in a polymer gas permeability compilation.

Row | Compound | CH4 permeability | CO2 permeability | N2 permeability | O2 permeability | H2 permeability
1 | */C(C)=C(/*)[Si](C)(C)C (repeat unit) | 15000 Barrer | 28600 Barrer | 6600 Barrer | 9000 Barrer | 15000 Barrer
2 | *c1cc(C(=O)OCCC(F)(F)C(F)(F)C(F)(F)C(F)(F)C(F)(F)C(F)(F)F)cc(N2C(=O)c3ccc(Oc4ccc5c(c4)C(=O)N(*)C5=O)cc3C2=O)c1 (repeat unit) | 0.36 Barrer | 11 Barrer | 0.56 Barrer | 2.61 Barrer | 
3 | *CC(*)c1ccc(OC(C)=O)cc1 (repeat unit) | 0.99 Barrer | 16.3 Barrer | 0.64 Barrer | 3.1 Barrer | 
4 | *CC(*)OC(=O)c1ccc(C)cc1 (repeat unit) | 0.417 Barrer | 6.73 Barrer | 0.339 Barrer | 1.72 Barrer | 
5 | *c1c(C)cc2c(c1C)C1c3ccccc3C2c2cc(C)c(-n3c(=O)c4cc5oc6cc7c(cc6oc5cc4c3=O)C3(C(C)C)c4ccccc4C7(C(C)C)c4cc5oc6cc7c(=O)n(*)c(=O)c7cc6oc5cc43)c(C)c21 (repeat unit) | 395 Barrer | 5010 Barrer | 306 Barrer | 1150 Barrer | 4140 Barrer
6 | *c1c(C)cc(-c2cc(C)c(N3C(=O)c4ccc(Oc5cc(C)c(Oc6ccc7c(c6)C(=O)N(*)C7=O)c(C)c5C)cc4C3=O)c(C)c2)cc1C (repeat unit) | 1.2 Barrer | 39 Barrer | 1.2 Barrer | 6.5 Barrer | 55 Barrer
7 | *Oc1c(Br)cc(C(c2cc(Br)c(OC(=O)c3cc(C(*)=O)cc(C(C)(C)C)c3)c(Br)c2)(C(F)(F)F)C(F)(F)F)cc1Br (repeat unit) | 3.36 Barrer | 85.1 Barrer | 4.47 Barrer | 22.1 Barrer | 149 Barrer
8 | */C=C/c1ccc(*)cc1[Si](C)(C)CCCCCCCCCCCCCCCCCC (repeat unit) |  | 61 Barrer | 4.5 Barrer | 12 Barrer | 
9 | *CCCC* (repeat unit) | 13 Barrer | 48.4 Barrer | 4 Barrer | 11.3 Barrer | 
10 | *c1ccc(C(c2ccc(-n3c(=O)c4cc5oc6cc7c(cc6oc5cc4c3=O)C3(CC(C)(C)c4cc5oc6cc8c(=O)n(*)c(=O)c8cc6oc5cc43)CC7(C)C)cc2)(C(F)(F)F)C(F)(F)F)cc1 (repeat unit) | 27 Barrer | 520 Barrer | 23 Barrer | 85 Barrer | 360 Barrer
11 | *C1C(*)C2CC1C1C2C([Si](C)(C)C)C1[Si](C)(C)C (repeat unit) | 3310 Barrer | 11300 Barrer | 1240 Barrer | 2380 Barrer | 4090 Barrer
12 | *CCOC(=O)c1ccc(C(=O)O*)cc1 (repeat unit) | 3 Barrer | 0.173 Barrer | 0.013 Barrer | 0.045 Barrer | 
13 | *Oc1ccc(C(C)(C)c2ccc(Oc3c(F)c(F)c(COC(C4CCCC(C(OCc5c(F)c(F)c(*)c(F)c5F)(C(F)(F)F)C(F)(F)F)C4)(C(F)(F)F)C(F)(F)F)c(F)c3F)cc2)cc1 (repeat unit) | 0.32 Barrer | 6.4 Barrer | 0.48 Barrer | 2.1 Barrer | 17 Barrer
14 | *Oc1ccc(-c2c(-c3ccccc3)c(-c3ccccc3)c(-c3ccc4c(c3)Oc3c(C#N)c(*)c(*)c(C#N)c3O4)c(-c3ccccc3)c2-c2ccccc2)cc1O* (repeat unit) | 192 Barrer | 2390 Barrer | 107 Barrer | 340 Barrer | 1000 Barrer

Results, then the compound that gave them:

Row | CH4 permeability | CO2 permeability | N2 permeability | O2 permeability | H2 permeability | Compound
15 | 0.155 Barrer | 4.5 Barrer | 0.203 Barrer | 1.4 Barrer |  | *Oc1ccc2c(c1)C1(CC2(C)C)CC(C)(C)c2ccc(Oc3ccc4c(c3)C(=O)N(c3cccc(N5C(=O)c6ccc(*)cc6C5=O)c3)C4=O)cc21 (repeat unit)
16 | 12000 Barrer | 26000 Barrer | 5100 Barrer | 6600 Barrer | 11000 Barrer | *C(=C(*)c1ccc2c(c1)C(C)(C)c1ccccc1-2)c1ccc(F)c(F)c1 (repeat unit)
17 | 0.092 Barrer | 2.2 Barrer | 0.105 Barrer | 0.6 Barrer | 9.1 Barrer | *OC(=O)Oc1ccc(C2(c3ccc(*)cc3)CCCCC2)cc1 (repeat unit)
18 | 470 Barrer | 2000 Barrer | 170 Barrer | 450 Barrer | 1100 Barrer | *C(=C(*)c1ccc2c(c1)CCC2)c1ccc([Si](C)(C)C)cc1 (repeat unit)
19 | 2.72 Barrer | 45.3 Barrer | 2.6 Barrer | 12.7 Barrer | 96 Barrer | *Oc1c(C)cc(C(C)(C)c2cc(C)c(OC(=O)c3cc(C(*)=O)cc(C(C)(C)C)c3)c(C)c2)cc1C (repeat unit)
20 | 215 Barrer |  | 188 Barrer | 1070 Barrer | 4740 Barrer | *CN1CN(*)c2cc3c(cc21)C1(C(C)C)c2ccccc2C3(C(C)C)c2cc(*)c(*)cc21 (repeat unit)
21 | 0.008 Barrer | 0.5 Barrer | 0.0181 Barrer | 0.13 Barrer | 3.6 Barrer | *c1cccc(Oc2cccc(-n3c(=O)c4cc5c(=O)n(*)c(=O)c5cc4c3=O)c2)c1 (repeat unit)
22 | 0.125 Barrer | 6.11 Barrer | 0.259 Barrer | 1.57 Barrer | 23.7 Barrer | *c1ccc(Oc2cccc(N3C(=O)c4ccc(C(c5ccc6c(c5)C(=O)N(*)C6=O)(C(F)(F)F)C(F)(F)F)cc4C3=O)c2)cc1 (repeat unit)
23 | 1.05 Barrer | 24 Barrer | 1.7 Barrer | 6.9 Barrer | 27 Barrer | *Oc1ccc(C(c2ccc(OC(*)=O)cc2)(C(F)(F)F)C(F)(F)F)cc1 (repeat unit)
24 | 0.66 Barrer | 23.1 Barrer | 0.87 Barrer | 4.66 Barrer |  | *c1ccc(Sc2ccc(N3C(=O)c4ccc(C(c5ccc6c(c5)C(=O)N(*)C6=O)(C(F)(F)F)C(F)(F)F)cc4C3=O)cc2)cc1 (repeat unit)
25 | 0.09 Barrer | 3.7 Barrer | 0.15 Barrer | 0.87 Barrer | 9.3 Barrer | *Oc1ccc(Oc2cccc(*)c2C#N)c(-c2cccc(C(F)(F)F)c2)c1 (repeat unit)
26 | 0.63 Barrer | 32.2 Barrer | 1.27 Barrer | 7.85 Barrer |  | *c1ccc2c(c1)Cc1cc(N3C(=O)c4ccc(C(c5ccc6c(c5)C(=O)N(*)C6=O)(C(F)(F)F)C(F)(F)F)cc4C3=O)ccc1-2 (repeat unit)
27 | 0.18 Barrer | 5 Barrer | 0.15 Barrer | 1.04 Barrer |  | *OC(=O)c1ccc(C(=O)Oc2ccc(C3(c4ccc(O*)c(C)c4)OC(=O)c4ccccc43)cc2C)cc1 (repeat unit)
28 | 0.581 Barrer | 15.1 Barrer | 0.592 Barrer | 3.18 Barrer |  | *OC(=O)Oc1ccc(C2(c3ccc(*)cc3)c3ccccc3-c3ccccc32)cc1 (repeat unit)
29 |  |  |  | 0.004 Barrer | 0.16 Barrer | *c1ccc(-c2nc3cc(-c4ccc5[nH]c(*)nc5c4)ccc3[nH]2)cc1 (repeat unit)
